Experimental data from PubChem BioAssay (NCI).
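48-hour exposure; five concentrations; linearly interpolated endpoints. TGI is the concentration that stops growth completely.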

How the values were obtained:
Test in all cases: DTP human tumour cell line panel, 48 h
EKVX NSCLC = tested on: EKVX NSCLC
KM12 colon = tested on: KM12 colon
M14 melanoma = tested on: M14 melanoma
MDA-MB-435 = tested on: MDA-MB-435
MOLT-4 leukemia = tested on: MOLT-4 leukemia
NCI-H226 lung = tested on: NCI-H226 lung
NCI-H460 lung = tested on: NCI-H460 lung
NCI/ADR-RES ovarian = tested on: NCI/ADR-RES ovarian
SF-539 CNS = tested on: SF-539 CNS
SK-MEL-28 melanoma = tested on: SK-MEL-28 melanoma
SR leukemia = tested on: SR leukemia
U251 CNS = tested on: U251 CNS

CCOC(=O)c1c(SCCN2CCCC2)n(-c2ccccc2)c(=S)n(-c2ccccc2)c1=O
TGI (EKVX NSCLC): 27 µM
TGI (KM12 colon): 29.8 µM
TGI (M14 melanoma): 3.25 µM
TGI (MDA-MB-435): 5.95 µM
TGI (MOLT-4 leukemia): 5.11 µM
TGI (NCI-H226 lung): 33.9 µM
TGI (NCI-H460 lung): 12.3 µM
TGI (NCI/ADR-RES ovarian): > 92 µM
TGI (SF-539 CNS): 4.86 µM
TGI (SK-MEL-28 melanoma): 7.48 µM
TGI (SR leukemia): 2.05 µM
TGI (U251 CNS): 16.7 µM

O=C1C(C=NCCc2c[nH]c3ccccc23)C(C(F)(F)F)=NN1c1nc2ccccc2s1 (stereo not drawn)
TGI (EKVX NSCLC): 62.9 µM
TGI (M14 melanoma): > 100 µM
TGI (MDA-MB-435): 71.9 µM
TGI (MOLT-4 leukemia): 60.4 µM
TGI (NCI-H226 lung): 68 µM
TGI (NCI-H460 lung): 62.4 µM
TGI (NCI/ADR-RES ovarian): 78 µM
TGI (SF-539 CNS): 86.4 µM
TGI (SK-MEL-28 melanoma): > 100 µM
TGI (SR leukemia): 93.9 µM
TGI (U251 CNS): > 100 µM

COc1ccc2c(c1)C(=O)c1ccccc1C2
TGI (EKVX NSCLC): > 100 µM
TGI (KM12 colon): > 100 µM
TGI (M14 melanoma): > 100 µM
TGI (MDA-MB-435): > 100 µM
TGI (MOLT-4 leukemia): > 100 µM
TGI (NCI-H226 lung): > 100 µM
TGI (NCI-H460 lung): > 100 µM
TGI (NCI/ADR-RES ovarian): > 100 µM
TGI (SF-539 CNS): > 100 µM
TGI (SK-MEL-28 melanoma): > 100 µM
TGI (SR leukemia): > 100 µM
TGI (U251 CNS): > 100 µM

CCN(CC)CCCn1c(=O)c2cccnc2n2c3c(=O)n(C)c(=O)n(C)c3nc12
TGI (EKVX NSCLC): > 100 µM
TGI (KM12 colon): > 100 µM
TGI (M14 melanoma): > 100 µM
TGI (MDA-MB-435): > 100 µM
TGI (MOLT-4 leukemia): > 100 µM
TGI (NCI-H226 lung): > 100 µM
TGI (NCI-H460 lung): > 100 µM
TGI (NCI/ADR-RES ovarian): > 100 µM
TGI (SF-539 CNS): > 100 µM
TGI (SK-MEL-28 melanoma): > 100 µM
TGI (SR leukemia): > 100 µM
TGI (U251 CNS): > 100 µM

CC(C)c1c(P(=O)(c2ccccc2)c2ccccc2)n(C)c2ccccc12
TGI (EKVX NSCLC): > 100 µM
TGI (KM12 colon): > 100 µM
TGI (M14 melanoma): > 100 µM
TGI (MDA-MB-435): > 100 µM
TGI (MOLT-4 leukemia): > 100 µM
TGI (NCI-H226 lung): > 100 µM
TGI (NCI-H460 lung): > 100 µM
TGI (NCI/ADR-RES ovarian): > 100 µM
TGI (SF-539 CNS): > 100 µM
TGI (SK-MEL-28 melanoma): > 100 µM
TGI (SR leukemia): > 100 µM
TGI (U251 CNS): > 100 µM

CCn1c(=O)c2c3cc(O)ccc3oc2c2ccc(O)cc21
TGI (EKVX NSCLC): 62.6 µM
TGI (KM12 colon): > 100 µM
TGI (M14 melanoma): > 100 µM
TGI (MDA-MB-435): > 100 µM
TGI (MOLT-4 leukemia): > 100 µM
TGI (NCI-H226 lung): > 100 µM
TGI (NCI-H460 lung): > 100 µM
TGI (NCI/ADR-RES ovarian): > 100 µM
TGI (SF-539 CNS): 73 µM
TGI (SK-MEL-28 melanoma): > 100 µM
TGI (SR leukemia): 63.5 µM
TGI (U251 CNS): > 100 µM

O=C1C(Br)=Cc2c(Cl)sc(Cl)c21
TGI (EKVX NSCLC): 22.2 µM
TGI (KM12 colon): 20.3 µM
TGI (M14 melanoma): 26.7 µM
TGI (MDA-MB-435): 5.43 µM
TGI (MOLT-4 leukemia): 2.08 µM
TGI (NCI-H226 lung): > 100 µM
TGI (NCI-H460 lung): 53.3 µM
TGI (NCI/ADR-RES ovarian): > 100 µM
TGI (SF-539 CNS): 15.1 µM
TGI (SK-MEL-28 melanoma): 41.3 µM
TGI (SR leukemia): 15.5 µM
TGI (U251 CNS): 7.53 µM

N#Cc1c(OCCF)c2ccccc2n2c1nc1ccccc12
TGI (EKVX NSCLC): > 100 µM
TGI (KM12 colon): > 100 µM
TGI (M14 melanoma): > 100 µM
TGI (MDA-MB-435): > 100 µM
TGI (MOLT-4 leukemia): > 100 µM
TGI (NCI-H226 lung): > 100 µM
TGI (NCI-H460 lung): > 100 µM
TGI (NCI/ADR-RES ovarian): > 100 µM
TGI (SF-539 CNS): 52.3 µM
TGI (SK-MEL-28 melanoma): > 100 µM
TGI (SR leukemia): > 100 µM
TGI (U251 CNS): > 100 µM

CO/N=C1/c2sccc2[C@H](NC(=O)CNC(=O)OC(C)(C)C)[C@@H]1O
TGI (EKVX NSCLC): > 100 µM
TGI (M14 melanoma): > 100 µM
TGI (MDA-MB-435): > 100 µM
TGI (MOLT-4 leukemia): > 100 µM
TGI (NCI-H226 lung): > 100 µM
TGI (NCI-H460 lung): > 100 µM
TGI (NCI/ADR-RES ovarian): > 100 µM
TGI (SF-539 CNS): > 100 µM
TGI (SK-MEL-28 melanoma): > 100 µM
TGI (SR leukemia): > 100 µM
TGI (U251 CNS): > 100 µM

CN(O)C(=O)Cc1ccc(OCc2cccc(Cl)c2)cc1
TGI (EKVX NSCLC): > 100 µM
TGI (KM12 colon): > 100 µM
TGI (M14 melanoma): > 100 µM
TGI (MDA-MB-435): > 100 µM
TGI (MOLT-4 leukemia): > 100 µM
TGI (NCI-H226 lung): > 100 µM
TGI (NCI-H460 lung): > 100 µM
TGI (NCI/ADR-RES ovarian): > 100 µM
TGI (SF-539 CNS): > 100 µM
TGI (SK-MEL-28 melanoma): > 100 µM
TGI (SR leukemia): > 100 µM
TGI (U251 CNS): > 100 µM

CC1CC(C#N)=C2NCCCCN2C1=O (stereo not drawn)
TGI (EKVX NSCLC): > 100 µM
TGI (KM12 colon): > 100 µM
TGI (M14 melanoma): > 100 µM
TGI (MDA-MB-435): > 100 µM
TGI (MOLT-4 leukemia): > 100 µM
TGI (NCI-H226 lung): > 100 µM
TGI (NCI-H460 lung): > 100 µM
TGI (NCI/ADR-RES ovarian): > 100 µM
TGI (SF-539 CNS): > 100 µM
TGI (SK-MEL-28 melanoma): > 100 µM
TGI (SR leukemia): > 100 µM
TGI (U251 CNS): > 100 µM

CSc1c(C(=O)Nc2ccc(C)cc2)c(N)[nH]c(=O)c1C#N
TGI (EKVX NSCLC): > 100 µM
TGI (KM12 colon): > 100 µM
TGI (M14 melanoma): > 100 µM
TGI (MDA-MB-435): > 100 µM
TGI (MOLT-4 leukemia): > 100 µM
TGI (NCI-H226 lung): > 100 µM
TGI (NCI-H460 lung): > 100 µM
TGI (NCI/ADR-RES ovarian): > 100 µM
TGI (SF-539 CNS): > 100 µM
TGI (SK-MEL-28 melanoma): > 100 µM
TGI (SR leukemia): > 100 µM
TGI (U251 CNS): > 100 µM

CC(=O)OCC1OC(n2c(=S)[nH]c(-c3ccccc3)c(C#N)c2=O)C(OC(C)=O)C(OC(C)=O)C1OC(C)=O (stereo not drawn)
TGI (EKVX NSCLC): > 100 µM
TGI (KM12 colon): > 100 µM
TGI (M14 melanoma): > 100 µM
TGI (MDA-MB-435): > 100 µM
TGI (MOLT-4 leukemia): > 100 µM
TGI (NCI-H226 lung): > 100 µM
TGI (NCI-H460 lung): > 100 µM
TGI (NCI/ADR-RES ovarian): > 100 µM
TGI (SF-539 CNS): > 100 µM
TGI (SK-MEL-28 melanoma): > 100 µM
TGI (SR leukemia): > 100 µM
TGI (U251 CNS): > 100 µM

Cc1cccc(N(CCC#N)S(=O)(=O)c2ccccc2)c1
TGI (EKVX NSCLC): > 100 µM
TGI (KM12 colon): > 100 µM
TGI (M14 melanoma): > 100 µM
TGI (MDA-MB-435): > 100 µM
TGI (MOLT-4 leukemia): > 100 µM
TGI (NCI-H226 lung): > 100 µM
TGI (NCI-H460 lung): > 100 µM
TGI (NCI/ADR-RES ovarian): > 100 µM
TGI (SF-539 CNS): > 100 µM
TGI (SK-MEL-28 melanoma): > 100 µM
TGI (SR leukemia): > 100 µM
TGI (U251 CNS): > 100 µM

CCOc1ccc(N=C/C=C(\Cl)c2ccc3ccccc3c2)cc1
TGI (EKVX NSCLC): 62.1 µM
TGI (KM12 colon): 33.9 µM
TGI (M14 melanoma): 37.7 µM
TGI (MDA-MB-435): 43.9 µM
TGI (MOLT-4 leukemia): 6.16 µM
TGI (NCI-H226 lung): 53.7 µM
TGI (NCI-H460 lung): 44.8 µM
TGI (NCI/ADR-RES ovarian): 31.8 µM
TGI (SF-539 CNS): 39 µM
TGI (SK-MEL-28 melanoma): 31.4 µM
TGI (SR leukemia): 5.31 µM
TGI (U251 CNS): 33.4 µM
